Assay results: patent EP3108900B1, “PROTOTYPE SYSTEMS OF THERANOSTIC BIOMARKERS FOR IN VIVO MOLECULAR MANAGEMENT OF CANCER” (EPOS-Iasis Research and Development, Ltd, priority 2015, dated 2016)
Where “and” joins values, the source holds several entries; their conditions need not be identical. Identical values can stand only once. Like-named read-outs stand apart in the source and are kept apart here.

Key:
[1] = test system: colon cancer cells (SW480); assay: antiproliferative effect / cell viability; assay type: cell-based; conditions: control = no drug
Method: The antiproliferative effect of the following compounds A1F, B1F, C1F and D1F were tested on colon cancer cells (SW480). [drawing 94] [drawing 95]

[2] = test system: LoVo cells; assay: MTT colorimetric assay (antiproliferative efficacy); assay type: cell-based
[3] = test system: SW620 cells; assay: label-free temporal and quantitative pharmacoproteomics; assay type: cell-based
Method: The following experiment was performed to uncover new biomarkers of therapeutic response to the anticancer efficacy of the natural product based theranostic systems of the present invention.
In this experiment, SW620 cells were seeded in T75 flasks in DMEM, 10% FBS and 1% Penicillin/Streptomycin (all from Gibco). The cells were allowed to attach overnight. The following day the medium was removed and fresh medium containing 0.04 mM of either γT (γ-tocotrienol) or DCE-γT (diluted in absolute ethanol; final concentration of ethanol in the medium was 0.1% v/v). For control untreated cells, equal amount of fresh medium (containing ethanol at 0.1% v/v final concentration) was added.
SW620 cells were harvested after 24, 36 and 48 hrs of incubation with γT or DCE-γT. Briefly, the medium was removed and the cells were rinsed three times with PBS (without Ca, Mg) (Gibco). Fresh PBS was added and the cells were scraped off the flasks and collected in tubes. Collected cells were centrifuged at 1000rpm (165g) for 3min and the supernatant was removed. The cell pellet was re-suspended in PBS and the centrifugation step was repeated. The supernatant was removed and the cells in minimal residual PBS were snap-freezed in liquid nitrogen. Once frozen the cells were stored in -80°C until the proteomics analysis.
In terms of data analysis, a threshold of relative protein abundance equal or greater than 1.5-fold increase or decrease was set.

[4] = target: T1, EGFR membrane tyrosine kinase receptor (Homo sapiens, UniProt P00533); assay: FRET assay in cells transfected with EGFR-Luc plasmid; assay type: cell-based; conditions: EGFR negative colon cancer cells transiently transfected with EGFR-Luc plasmid
T1 construct: expressed in transfected cells
Method: The fluorescent esters of the natural products disclosed herein can also be used as molecular probes for deciphering the interaction between the natural product and potential biomarkers in cancer cells. EGFR negative colon cancer cells were transiently transfected with a rationally designed EGFR-Luc plasmid and incubated with the DCE-γ-Tocotrienol ester. Bioluminescence of the Luciferase (donor) was assessed against the fluorescence signal of either the DCE-γ-Tocotrienol ester or the hydrolysis product (acceptor).

[5] = target: EGFR-Luc and Grb2-GFP (Homo sapiens, UniProt P00533); assay: BRET assay of EGFR-Luc and Grb2-GFP interaction; assay type: cell-based; conditions: interaction between EGFR-Luc and Grb2-GFP
[6] = in vivo biodistribution, quantitative fluorescence imaging
[7] = SW620 cells, 0.04 mM, versus control untreated cells

C=CC(=O)Nc1cc2c(Nc3ccc(Br)cc3)ncnc2cc1NC(=O)CCl [A1F]
viability of the cells with respect to the control [1]: reduce the viability of the cells

C=CC(=O)Nc1cc2c(Nc3ccc(C(C)C)cc3)ncnc2cc1NC(=O)CCl [B1F]
viability of the cells with respect to the control [1]: reduce the viability of the cells

C=CC(=O)Nc1cc2c(NCc3cccc4ccccc34)ncnc2cc1NC(=O)CCl [C1F]
viability of the cells with respect to the control [1]: reduce the viability of the cells

C=CC(=O)Nc1cc2c(Nc3ccc(C(C)(C)C)cc3)ncnc2cc1NC(=O)CCl [D1F]
viability of the cells with respect to the control [1]: reduce the viability of the cells

CC1(C)C(/C=C/C=C/C=C/C=C2\N(CCCCS(=O)(=O)O)c3ccc4ccccc4c3C2(C)C)=[N+](CCCCS(=O)(=O)[O-])c2ccc3ccccc3c21 [free cyanine dye, indocyanine green]
antiproliferative efficacy [2]: did not exhibit any antiproliferative effects

CC(C)=CCC/C(C)=C/CC/C(C)=C/CC[C@]1(C)CCc2cc(O)c(C)c(C)c2O1 [γT, γ-tocotrienol, reference compound]
decrease of protein level of histone H2B types [3, 7]: 1.8 fold
decrease of protein level of histone H3 types [3, 7]: at least 3.7 fold
decrease of protein level of hnRNPs [3, 7]: at least 2 fold
decrease of protein level of snRNPs / certain snRNP components [3, 7]: 1.8 fold
increase of histone H2A.Z [3, 7]: 24 fold
increase of the level of RNA helicases [3, 7]: ≥ 1.9 fold
increase of the level of certain snRNP components [3, 7]: ≥ 3 fold
increase of the level of transcription regulators/co-factors [3, 7]: ≥ 2 fold

dicarboxylic ester of γ-Tocotrienol [DCE-γT]
BRET signal [4]: amplified FRET signal
activation within the EGFR axis (BRET signals) [5]: neither the ester nor the hydrolysis products elicit any unwanted activation
decrease of DNA repair factors [3]: 2 fold
decrease of protein level of histone H3 types [3]: at least 6 fold
decrease of protein level of snRNPs / certain snRNP components [3]: 2 fold
increase of histone H2A.Z [3]: 23 fold
increase of histone H3 forms [3]: ≥ 1.8 fold
number of proteins whose expression was elicited [3]: 37 proteins and 30 proteins and 29 proteins
protein modulation [3]: statistically significant modulation of key proteins
time of peak of fluorescent signal ([6]; in vivo biodistribution, uptake as a function of time): 30 min
brain uptake / blood brain barrier passage ([6]; mouse brain parenchyma cells, data not shown): able to pass the blood brain barrier
